In series [1] the test system is HIV-1 K103N/Y181C variant. Nature of the series: microbe, parasite or virus in culture. The series is classed as cell-based.
Series [2] concerns MT-2 human T-cells. Nature of the series: Cytotoxicity, inhibition of MT-2 cell growth. The following applies: read-out: cytotoxicity (CC50); Table 4; human MT-2 cells.
The subject of series [3] is HIV-1 Y181C variant. The following applies: MT-4 cells; Janssen 2005 / Ludovici 2001; read-out: previously reported EC50, Y181C; cited from earlier work.
The subject of series [4] is wild-type HIV-1. To be noted: MT-4 cells; Janssen 2005 / Ludovici 2001; read-out: previously reported EC50, wild-type; cited from earlier work.
Series [5] has as its system HIV-1 Y181C variant. Nature of the series: microbe, parasite or virus in culture. The class given is cell-based.
Series [6] has as its system HIV-1 K103N/Y181C variant. The following applies: MT-4 cells; Janssen 2005 / Ludovici 2001; read-out: previously reported EC50, K103N/Y181C; cited from earlier work.
For series [7] the following is noted: literature values; cited from earlier work.
Series [8] is described as follows: Aqueous solubility, shake-flask method with UV detection. To be noted: shake-flask, 25° C. As to the method:
The compounds were dissolved in Britton-Robinson buffer and stirred in vials for 48 hours at 25° C. The pH of the buffer solutions was measured by a Corning General Purpose pH Combination probe (4136L21).
For measurement of aqueous solubility, the pH of the buffer solutions was measured by Corning Combination pH Electrodes (4136L21) pH meter with Ag/AgCl glass electrode. […] An Ika® RCT basic magnetic stirrer was used to mix the two phases.
The equilibrium solubility of the non-ionized form of the samples was determined by the shake flask method. For each reported solubility result, two or three independent shake-flask experiments were carried out in parallel. For each experiment the 5 mg of the solid was added to 5 mL of the buffer in a vial. […] The standards and samples were measured by UV spectrophotometry at the maximum wavelength of the individual compounds.

The nature of series [9]: Cytotoxicity, inhibition of MT-2 cell growth. To be noted: human.
The nature of series [10]: Aqueous solubility, literature reports. The series is classed as physicochemical. To be noted: translated from 20 ng/mL at pH 7.0.

The text below walks through data of patent US9914709B2, “Compositions and methods of treating HIV-1 infections using same” (YALE UNIVERSITY, priority 2013, dated 2018).

Molecules are shown by their SMILES. ≈ marks a conversion by molar mass, not a printed value. Like-named read-outs stand apart in the source and are kept apart here.

As a reminder, the CC50 is the concentration giving 50% cytotoxicity. Consider `Cc1cc(C)c(Nc2ccnc(Nc3ccc(C#N)cc3)n2)c(C)c1` [Compound 10a, dapivirine, reference compound], for which the EC50 is 39 nM in series [1] (Human immunodeficiency virus 1, MT2, read-out: EC50, K103N/Y181C variant); 39 nM in series [1] (Human immunodeficiency virus 1, MT2, read-out: EC50 K103N/Y181C); 7 nM in series [3]; 1.2 nM in series [4]; 39 nM in series [5] (Human immunodeficiency virus 1, MT2, read-out: EC50, Y181C variant); 39 nM in series [5] (Human immunodeficiency virus 1, MT2, read-out: EC50 Y181C). In addition, in series [6], the EC50 was 54 nM. For the same compound, the CC50 in [2] worked out at 2000 nM.

The aqueous solubility is the concentration that dissolves in the medium under given conditions. On to `CN1C(C(=O)Nc2ccccn2)=C(O)c2ccccc2S1(=O)=O` [Piroxicam, reference compound], for which the aqueous solubility in series [7] was 6.4 µg/mL (≈ 19.3 µM). Besides, the “Aqueous Solubility (S)” value in series [8] came out at 7.2 µg/mL.

Turning to `Cc1ccnc2c1NC(=O)c1cccnc1N2C1CC1` [nevirapine], the CC50 in series [2] and in series [9] was greater than 100000 nM each time.

On to `Cc1cc(/C=C/C#N)cc(C)c1Nc1ccnc(Nc2ccc(C#N)cc2)n1` [rilpivirine, reference compound], for which the “S” value in series [10] came out at 50 nM.
